Results as given in article doi:10.1101/125930v1 (bioRxiv, 2017).

Tested on: purified E. coli protein synthesis system (PURE)
Assay: Myc-peptide translation assay
Type: biochemical
Conditions: MALDI-TOF, assuming similar ionization properties

| SMILES | consecutive incorporations (in the absence of EF-P) | consecutive incorporations (with 8 μM EF-P) |
| --- | --- | --- |
| N[C@H](Cc1ccc(O)cc1)C(=O)O [^DTyr, D-tyrosine] | ≤ 2 | ≤ 5 |
| N[C@@H](Cc1ccc(O)cc1)C(=O)O [^LTyr, L-tyrosine] | up to 3 | up to 7 |
